Earlier results in patent publication US9855260B2, “Quinolinone derivatives” (GlaxoSmithKline LLC, priority 2011, dated 2018).

Tested on: ob/ob and db/db mice
Details: 8 day administration

For `NC(=O)c1ncn([C@@H]2O[C@H](CO)[C@@H](O)[C@H]2O)c1N` [AICAR, 5-aminoimidazole-4-carboxamide-1(beta)-D-ribofuranoside], the reduces blood glucose is given as 35%.
